Assay results taken from US11753407B2, “Compounds for treating spinal muscular atrophy” (PTC Therapeutics, Inc., priority 2012, dated 2023).

Experiments:
[1] = Body weight of neonatal Δ7 SMA mice; format: in vivo; settings: neonatal SMA Δ7 homozygous knockout mice
Description: The change in body weight of neonatal SMA mice is used to determine whether treatment with a test compound improves body weight.
Protocol. SMA Δ7 homozygous knockout mice are dosed intraperitoneally (IP) with test compound or vehicle (100% DMSO) QD from PND 3 until the dose regimen is switched to an oral dose BID in 0.5% hydroxypropylmethyl cellulose (HPMC) with 0.1% Tween-80 at a dose 3.16-fold higher than the dose used for IP. Body weights of SMA Δ7 mice treated with test compound or vehicle and age matched heterozygous mice are recorded every day.

[2] = system: SMN2 mRNA in GM03813 SMA patient cells; test: Endogenous SMN2 mRNA end-point semi-quantitative RT-PCR splicing assay in cultured cells; format: cell-based, human; settings: Type 1 SMA patient fibroblasts, increasing concentrations, 24 hr, end-point RT-PCR (FIG. 5)
Description: The endpoint reverse transcription-PCR splicing assay is used to visualize and quantify the levels of the full length and Δ7 SMN2 mRNA in primary cells and cell lines containing the SMN2 gene treated with a test compound.
Protocol. GM03813 SMA patient cells (5,000 cells/well) are seeded in 200 μL of cell culture medium (DMEM plus 10% FBS) in 96-well flat-bottom plates and the plate is immediately swirled to ensure proper dispersal of cells, forming an even monolayer of cells. Cells are allowed to attach for at least 4-6 hrs. Test compounds are serially diluted 3.16-fold in 100% DMSO to generate a 7-point concentration curve. A solution of test compound (1 μL, 200× in DMSO) is added to each test well and 1 μL DMSO is added to each control well. The plate is incubated for 24 hrs in a cell culture incubator (37° C., 5% CO2, 100% relative humidity). The cells are then lysed in Cells-To-Ct lysis buffer and the lysate is stored at −80° C.
SMN FL and Δ7 mRNA are identified using the following primers in Table 6. These primers hybridize to a nucleotide sequence in exon 6 (SMN Forward C, SEQ ID NO. 11) (nucleotide 43 to nucleotide 63) and exon 8 (SMN Reverse C, SEQ ID NO. 12) (nucleotide 51 to nucleotide 73) common to human SMN1 and SMN2 mRNA. Since the SMA patient cells used in Example 4 contain only the SMN2 gene, RT-PCR can visualize and quantify only SMN2 full-length and SMN2 Δ7 mRNA.
To synthesize cDNA, 5 μL of lysate, 4 μL of 5× iScript reaction mix, 1 μL of reverse transcriptase, and 10 μL of water are combined and incubated 5 min at 25° C. followed by 30 min at 42° C., followed by 5 min at 85° C. The cDNA solution is stored at −20° C.
To perform endpoint PCR, 5 μL of cDNA, 0.2 μL of 100 μM forward primer, 0.2 μL of 100 μM reverse primer, and 22.5 μL of polymerase super mix are combined in a 96 well semiskirted PCR plate. PCR is carried out at the following temperatures for the indicated time: Step 1: 94° C. (2 min), Step 2: 94° C. (30 sec), Step 3: 55° C. (30 sec), Step 4: 68° C. (1 min), then repeat Steps 2 to 4 for a total of 33 cycles, then hold at 4° C.
10 μL of each PCR sample is electrophoretically separated on a 2% agarose E-gel for 14 minutes stained with double-stranded DNA (dsDNA) staining reagents (e.g., ethidium bromide) and visualized using a gel imager.

Smn protein = Smn protein levels in tissues of Δ7 SMA mice of the survival study; format: in vivo; settings: spinal cord
Description: Protocol. The tissue samples in Safe-Lock tubes are weighed and the volume of RIPA buffer containing the protease inhibitor cocktail is added based on the weight to volume ratios for each type of tissue: Brain (50 mg/mL), Muscle (50 mg/mL) and Spinal Cord (25 mg/mL).
Tissues are homogenized using the TissueLyzer by bead milling. 5 mm stainless steel beads are added to the sample and shaken vigorously for 5 minutes at 30 Hz in the TissueLyzer. The samples are then centrifuged for 20 minutes at 14,000×g in a microcentrifuge and the homogenates transferred to the PCR plate. […] Fluorescence for each well of the plate at 665 nm and 620 nm is measured on an EnVision multilabel plate reader (Perkin-Elmer). The total protein in the tissue homogenate is measured using the BCA assay according to the manufacturer's protocol.
The normalized fluorescence signal is calculated for each sample, Blank and vehicle control well by dividing the signal at 665 nm by the signal at 620 nm. Normalizing the signal accounts for possible fluorescence quenching due to the matrix effect of the tissue homogenate. […] The ΔF value for each tissue sample well is divided by the total protein quantity (determined using the BCA assay) for that tissue sample. […]
Protocol. […] The number of surviving mice in each group is recorded every day and plotted as a percent of total number of mice. […]

| Compound | body weight ([1]; IP QD PND 3 to PND 30, then orally BID from PND 31 until study end (FIG. 13a)) | SMN2 FL mRNA [2] | SMN2 Δ7 mRNA [2] | Smn protein expression (Smn protein; IP 10 mg/kg QD PND 3-30, then orally 30 mg/kg BID PND 31-156, brain, muscle (FIG. 16a)) | body weight ([1]; IP QD PND 3 to PND 23, then orally BID from PND 24 until study end (FIG. 13b)) | Smn protein expression (Smn protein; IP 3 mg/kg QD PND 3-23, orally 10 mg/kg BID PND 24-88, orally 20 mg/kg QD PND 89-185, brain, muscle (FIG. 16b)) |
| --- | --- | --- | --- | --- | --- | --- |
| COc1ccc(-c2cc(=O)n3cc(N4CCNCC4)ccc3n2)cc1OC [Cpd 6, 2-(3,4-dimethoxyphenyl)-7-(piperazin-1-yl)-4H-pyrido[1,2-a]pyrimidin-4-one] | improved compared to vehicle treated mice | progressively more SMN2 FL mRNA | less SMN2 Δ7 mRNA | increased Smn protein expression in brain, spinal cord, and muscle tissues |  |  |
| Cc1cn2nc(-c3cc(=O)n4cc(N5CCN(C)CC5)ccc4n3)cc2c(C)n1 [Cpd 170, 2-(4,6-dimethylpyrazolo[1,5-a]pyrazin-2-yl)-7-(4-methylpiperazin-1-yl)-4H-pyrido[1,2-a]pyrimidin-4-one] |  | progressively more SMN2 FL mRNA | less SMN2 Δ7 mRNA |  | improved compared to vehicle treated mice | increased Smn protein expression in brain, spinal cord, and muscle tissues |
